Data: patent US12528808B2, “Therapy for erythropoietic protoporphyria (EPP) and X-linked protoporphyria (XLP)” (UNIVERSITY OF PITTSBURGH-OF THE COMMONWEALTH SYSTEM OF …, priority 2019, dated 2026)
Entries after “also recorded” stand apart in the source; their conditions may differ.

How the values were obtained:
[1] = Pharmacokinetic study in mice; format: in vivo; conditions: WT mice, 50 mg/kg by gavage, serum, FIG. 11
Description: Pharmacokinetic Study in Mice.
Blood was collected at 0, 0.25, 0.5, 1, 2, 4, 8, 12, 24 h after treatment. The concentration of target compound in serum was analyzed by UPLC-QTOFMS.

[2] = Metabolic stability assay, incubation with human liver microsomes (HLM); format: in vitro ADME; conditions: remaining parent compound
Description: Metabolic Stability Assay.
After the incubation (0-60 min), the remaining parent compounds were analyzed by UPLC-QTOFMS.

[3] = MTT cytotoxicity assay
[4] = target: T1, ABCG2 (Homo sapiens, UniProt Q9UNQ0); test: Protoporphyrin IX (PPIX)-based ABCG2 inhibition assay using the A549 cancer cell line; conditions: read-out: IC50, the half maximal inhibitory concentration
T1 construct: developed using the A549 cancer cell line; endogenous in cells; host or cells: A549 cancer cell line
T1 sequence (Q9UNQ0 1-655): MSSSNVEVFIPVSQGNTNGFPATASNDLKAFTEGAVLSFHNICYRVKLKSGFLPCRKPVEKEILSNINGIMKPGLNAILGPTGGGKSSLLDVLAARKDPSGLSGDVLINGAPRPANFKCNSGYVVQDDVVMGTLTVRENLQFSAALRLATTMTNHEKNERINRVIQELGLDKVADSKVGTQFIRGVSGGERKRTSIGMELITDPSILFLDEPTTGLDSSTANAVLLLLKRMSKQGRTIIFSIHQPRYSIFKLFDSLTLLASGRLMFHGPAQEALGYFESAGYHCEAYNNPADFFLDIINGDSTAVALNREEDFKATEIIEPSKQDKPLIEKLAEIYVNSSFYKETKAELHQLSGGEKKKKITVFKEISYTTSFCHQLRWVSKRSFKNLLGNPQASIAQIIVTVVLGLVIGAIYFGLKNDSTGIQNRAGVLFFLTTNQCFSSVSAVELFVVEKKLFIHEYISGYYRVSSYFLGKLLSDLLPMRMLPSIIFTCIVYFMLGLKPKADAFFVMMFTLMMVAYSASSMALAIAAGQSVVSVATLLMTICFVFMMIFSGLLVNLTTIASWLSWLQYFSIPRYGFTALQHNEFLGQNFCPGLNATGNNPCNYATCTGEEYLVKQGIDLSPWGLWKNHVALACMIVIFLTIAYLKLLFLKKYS
From the text: A Protoporphyrin IX(PPIX)-based ABCG2 inhibition assay was developed using the A549 cancer cell line.

[5] = in vitro
[6] = tested on: RBCs of Fech-mut mice; test: Effect on PPIX efflux from RBCs; format: cell-based; conditions: 10 μM, FIG. 14
From the text: Effects of ABCG2 Inhibitors on PPIX Efflux from RBCs.
PPIX in RBCs and culture medium was extracted, respectively, and analyzed by UPLC-QTOFMS.

[7] = tested on: Fech-mut mice; test: Efficacy against EPP-associated phototoxicity in vivo (Fech-mut mouse model)
Description: Efficacy of ABCG2 Inhibitors Against EPP-Associated Phototoxicity In Vivo.
The Fech-mut mouse model was used as an EPP model to determine the efficacy of ABCG2 inhibitors against EPP-associated phototoxicity, the most common symptom in EPP patients (6-8). […] After 5 days' treatment, all mice were sacrificed for evaluation of skin damage.
Thirty minutes after treatment, the mice were exposed to UV light for 30 minutes. The same treatment (drug plus light exposure) was repeated once daily for 4 days. From the 5th day, drug treatment was stopped, but the light exposure was continued for 4 more days. The gross appearance of mouse skin was recorded every day. On the 9th day, all mice were sacrificed and the back skin was collected for evaluation of phototoxicity.

[8] = tested on: WT and Abcg2-null mice; test: Chemically-induced PPIX accumulation and hepatotoxicity in WT and Abcg2-null mice; conditions: DDC 0.1% or GSF 2.5% in diet, two weeks
Description: Animal Studies to Determine the Role of ABCG2 in Chemically-Induced PPIX Accumulation and Hepatotoxicity
WT and Abcg2-null mice were treated with DDC (0.1% in diet) or GSF (2.5% in diet) for two weeks. In addition, hPXR and hPXR/Abcg2-null mice were treated with RIF (100 mg/Kg diet) and INH (400 mg/L drinking water) for four weeks. After the treatment, blood and liver samples were collected for evaluation of liver injury and analysis of PPIX.
Liver injury was evaluated by analyzing serum alanine aminotransaminase (ALT), aspartate aminotransferase (AST), alkaline phosphatase (ALP) (Pointe Scientific Canton, MI), and total bilirubin (Sigma-Aldrich, St. Louis, MO). These liver injury biomarkers were analyzed according to the standard procedures provided by the manufacturers. Blood toxicity was evaluated by analyzing mean corpuscular hemoglobin (MCH) (HESKA HemaTrue; Loveland, CO) and total hemoglobin (tHb) (AVOXimeter 4000; Edison, NJ).
Liver and skin tissues were first fixed in 4% formaldehyde phosphate solution overnight and then dehydrated and embedded in paraffin. […] sections were cut and stained. For hematoxylin and eosin (H&E) staining, tissue sections were stained in hematoxylin solution for 5 min, washed with tap water for 1 min, and then differentiated in 1% acetic acid solution for 1 min and followed by staining in eosin solution for 1 min. For Sirius Red Staining, tissue sections were stained in 0.1% PicroSirius Red solution for 1 h, and then washed with 1% acetic acid solution twice.

[9] = target: T2, carboxylesterase 1 (Homo sapiens, UniProt P23141); test: Hydrolysis of tert-butyl ester group by carboxylesterase 1; format: in vitro ADME
T2 sequence (P23141 18-567): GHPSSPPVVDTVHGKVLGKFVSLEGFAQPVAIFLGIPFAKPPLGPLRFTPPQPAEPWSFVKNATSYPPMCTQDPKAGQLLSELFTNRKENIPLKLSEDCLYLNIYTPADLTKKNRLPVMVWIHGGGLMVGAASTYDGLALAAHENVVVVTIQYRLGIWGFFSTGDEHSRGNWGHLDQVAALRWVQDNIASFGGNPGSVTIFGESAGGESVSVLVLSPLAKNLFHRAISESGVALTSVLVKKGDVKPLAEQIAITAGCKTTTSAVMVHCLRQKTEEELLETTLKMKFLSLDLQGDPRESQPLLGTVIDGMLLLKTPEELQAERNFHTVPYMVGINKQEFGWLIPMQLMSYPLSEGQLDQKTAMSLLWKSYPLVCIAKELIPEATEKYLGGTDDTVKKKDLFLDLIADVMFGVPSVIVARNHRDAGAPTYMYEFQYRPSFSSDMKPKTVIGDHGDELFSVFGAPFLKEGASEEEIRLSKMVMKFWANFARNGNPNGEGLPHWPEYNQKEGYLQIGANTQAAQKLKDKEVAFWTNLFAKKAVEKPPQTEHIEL

[10] = read-out: CC50, the 50% cytotoxic concentration, MTT assay

| Compound | HLM stability (% vs 0 min) 30 min [2] | HLM stability (% vs 0 min) 60 min [2] | IC50 [4] | CC50 [3, 10] | other results |
| --- | --- | --- | --- | --- | --- |
| COc1ccc2c3c([nH]c2c1)[C@H](CC(C)C)N1C(=O)[C@H](CCC(=O)NC(C)(C)C)NC(=O)[C@@H]1C3 [Compound K2, N-(tert-butyl)-3-((3S,6S,12aS)-6-isobutyl-9-methoxy-1,4-dioxo-1,2,3,4,6,7,12,12a-octahydropyrazino[1′,2′:1,6]pyrido[3,4-b]indol-3-yl)propanamide] |  |  |  |  | pharmacokinetic profile [1]: better pharmacokinetic profiles than KO143 |
| COc1ccc2c3c([nH]c2c1)[C@H](CC(C)C)N1C(=O)[C@H](CC(=O)NC(C)(C)C)NC(=O)[C@@H]1C3 [Compound K3, N-(tert-butyl)-2-((3S,6S,12aS)-6-isobutyl-9-methoxy-1,4-dioxo-1,2,3,4,6,7,12,12a-octahydropyrazino[1′,2′:1,6]pyrido[3,4-b]indol-3-yl)acetamide] | 74% | 60% | 0.18 µM | 58.9 µM |  |
| COc1ccc2c3c([nH]c2c1)[C@H](CC(C)C)N1C(=O)[C@H](CCCOC(C)(C)C)NC(=O)[C@@H]1C3 [Compound K7, (3S,6S,12aS)-3-(3-(tert-butoxy)propyl)-6-isobutyl-9-methoxy-2,3,12,12a-tetrahydropyrazino[1′,2′:1,6]pyrido[3,4-b]indole-1,4(6H,7H)-dione] | 16% | 9% | 0.09 µM |  | CC50 [5]: > 100 µM |
| COc1ccc2c3c([nH]c2c1)[C@H](CC(C)C)N1C(=O)[C@H](CCCCNC(=O)C(C)(C)C)N(C(=O)C(C)(C)C)C(=O)[C@@H]1C3 [Compound K11, N-(4-((3S,6S,12aS)-6-isobutyl-9-methoxy-1,4-dioxo-2-pivaloyl-1,2,3,4,6,7,12,12a-octahydropyrazino[1′,2′:1,6]pyrido[3,4-b]indol-3-yl)butyl)pivalamide] | 7% | 7% |  |  | CC50 [3]: 39.6 µM |
| COc1ccc2c3c([nH]c2c1)[C@H](CC(C)C)N1C(=O)[C@H](CCC(=O)NC(C)C)NC(=O)[C@@H]1C3 [Compound K34, 3-((3S,6S,12aS)-6-isobutyl-9-methoxy-1,4-dioxo-1,2,3,4,6,7,12,12a-octahydropyrazino[1′,2′:1,6]pyrido[3,4-b]indol-3-yl)-N-isopropylpropanamide] |  |  |  |  | pharmacokinetic profile [1]: better pharmacokinetic profiles than KO143 |
| CCOC(=O)C1=C(C)NC(C)=C(C(=O)OCC)C1C [DDC, 3,5-diethoxycarbonyl-1,4-dihydrocollidine] |  |  |  |  | liver damage, PPIX accumulation, bile plugs ([8]; Abcg2-null mice): these effects failed to occur; liver damage, PPIX accumulation, bile plugs ([8]; WT mice): caused liver damage, PPIX accumulation, and bile plugs |
| COC1=CC(=O)C[C@@H](C)[C@]12Oc1c(Cl)c(OC)cc(OC)c1C2=O [GSF, griseofulvin] |  |  |  |  | liver damage, PPIX accumulation, bile plugs ([8]; Abcg2-null mice): these effects failed to occur; liver damage, PPIX accumulation, bile plugs ([8]; WT mice): caused liver damage, PPIX accumulation, and bile plugs |
| COc1ccc2c3c([nH]c2c1)[C@H](CC(C)C)N1C(=O)[C@H](CCC(=O)OC(C)(C)C)NC(=O)[C@@H]1C3 [KO143, reference compound] |  |  |  |  | pharmacokinetic profile [1]: poor oral pharmacokinetic profile; stability (hydrolysis of tert-butyl ester group) [9]: very unstable |

More lines, main results first:

| HLM stability (% vs 0 min) 30 min [2] | HLM stability (% vs 0 min) 60 min [2] | IC50 [4] | Compound | CC50 [3, 10] | other results |
| --- | --- | --- | --- | --- | --- |
| 45% | 26% | 0.13 µM | COc1ccc2c3c([nH]c2c1)[C@H](CC(C)C)N1C(=O)[C@H](CC(=O)NC2CCCCC2)NC(=O)[C@@H]1C3 [Compound K23, N-cyclohexyl-2-((3S,6S,12aS)-6-isobutyl-9-methoxy-1,4-dioxo-1,2,3,4,6,7,12,12a-octahydropyrazino[1′,2′:1,6]pyrido[3,4-b]indol-3-yl)acetamide] | 46.6 µM |  |
|  |  | 3.14 µM | COc1ccc2c3c([nH]c2c1)[C@H](CC(C)C)N1C(=O)[C@H](CC(=O)N2CCCCC2)NC(=O)[C@@H]1C3 [Compound K25, (3S,6S,12aS)-6-isobutyl-9-methoxy-3-(2-oxo-2-(piperidin-1-yl)ethyl)-2,3,12,12a-tetrahydropyrazino[1′,2′:1,6]pyrido[3,4-b]indole-1,4(6H,7H)-dione] | 26.5 µM |  |
| 65% | 49% | 0.27 µM | COc1ccc2c3c([nH]c2c1)[C@H](CC(C)C)N1C(=O)[C@H](CC(=O)NC(C)C)NC(=O)[C@@H]1C3 [Compound K31, 2-((3S,6S,12aS)-6-isobutyl-9-methoxy-1,4-dioxo-1,2,3,4,6,7,12,12a-octahydropyrazino[1′,2′:1,6]pyrido[3,4-b]indol-3-yl)-N-isopropylacetamide] | > 100 µM | pharmacokinetic profile ([1]; 50 mg/kg): better pharmacokinetic profiles than KO143; also recorded: ideal pharmacokinetic profile; PPIX efflux from RBCs [6]: significantly inhibited PPIX efflux from RBCs; protection from phototoxicity in EPP mouse model ([7]; Fech-mut mice pretreated 30 min, then UV light (395-410 nm) 30 min, 5 days, FIG. 12): fully protected the EPP mice from phototoxicity; phototoxicity after withdrawal (withdrawal test) ([7]; Fech-mut mice, 100 mg/kg po plus light day 1 to 4, light only from day 5, FIG. 13): showed phototoxicity soon after the withdrawal of K31 |
| 37% | 18% | 0.25 µM | COc1ccc2c3c([nH]c2c1)[C@H](CC(C)C)N1C(=O)[C@H](CC(=O)NCc2ccccc2)NC(=O)[C@@H]1C3 [Compound K33, N-benzyl-2-((3S,6S,12aS)-6-isobutyl-9-methoxy-1,4-dioxo-1,2,3,4,6,7,12,12a-octahydropyrazino[1′,2′:1,6]pyrido[3,4-b]indol-3-yl)acetamide] | 31.1 µM |  |
